Results taken from patent US7915448B2, “Substituted sulfonylaminoarylmethyl cyclopropanecarboxamide as VR1 receptor antagonists” (Pfizer Inc., priority 2005, dated 2011).
Counter-ions that a name gives are not always drawn.

Key:
human VR1 receptors = target: T1, human VR1 receptors (Homo sapiens, UniProt Q8NER1); assay: Human VR1 antagonist assay (Ca2+ imaging); type: cell-based; settings: cells expressing human VR1, fura-2 Ca2+ imaging, FDSS 6000; capsaicin (300 nM) or acid (pH5.8) stimulation, table does not say which
T1 construct: host or cells: cells highly expressing human VR1; cell type not specified
Excerpt: Human VR1 Antagonist Assay
VR1 antagonistic activity can be determined by the Ca^2+ imaging assay using human VR1 highly expressing cells. The cells that highly express human VR1 receptors are obtainable from several different conventional methods. The one standard method is cloning from human Dorsal Root Ganglion (DRG) or kidney according to the methods such as described in the journal article; Nature, 389, pp 816-824, 1997. Alternatively VR1 receptors highly expressing human keratinocytes are also known and published in the journal article (Biochemical and Biophysical Research Communications, 291, pp 124-129, 2002). […] Further more, the method to up regulate human VR1 gene, which is usually a silent gene or don't produce detectable level of VR1 receptors, is also available to obtain propriety cells. Such genetic modification method was described in detail; Nat. Biotechnol., 19, pp 440-445, 2001.
The cells that express human VR1 receptors were maintained in culture flask at 37° C. in an environment containing 5% CO2 until use in the assay. The intracellular Ca^2+ imaging assay to determine VR1 antagonistic activities were done by following procedures.
The culture medium was removed from the flask and fura-2/AM fluorescent calcium indicator was added to the flask at a concentration of 5 μM in the medium. The flask was placed in CO2 incubator and incubated for 1 hour. Then the cells expressing the human VR1 receptors were detached from the flask follow by washing with phosphate buffer saline, PBS(−) and re-suspended in assay buffer. The 80 μl of aliquot of cell suspension (3.75×10^5 cells/ml) was added to the assay plate and the cells were spun down by centrifuge (950 rpm, 20° C., 3 minutes).
Capsaicin Stimulation Assay:
The capsaicin-induced changes in the intracellular calcium concentration were monitored using FDSS 6000 (Hamamatsu Photonics, Japan), a fluorometric imaging system. The cell suspension in Krebs-Ringer HEPES (KRH) buffer (115 mM NaCl, 5.4 mM KCl, 1 mM MgSO4, 1.8 mM CaCl2, 11 mM D-Glucose, 25 mM HEPES, 0.96 mM Na2HPO4, pH 7.3) were pre-incubated with varying concentrations of the test compounds or KRH buffer (buffer control) for 15 minutes at room temperature under the dark condition. Then capsaicin solution, which gives 300 nM in assay mixture, was automatically added to the assay plate by the FDSS 6000.
The Acid-induced changes in the intracellular calcium concentration were monitored using FDSS 6000 (Hamamatsu Photonics, Japan), a fluorometric imaging system. The cell suspension in resting buffer (HBSS supplemented with 10 mM HEPES, pH 7.4) were pre-incubated with varying concentrations of the test compounds or resting buffer (buffer control) for 15 minutes at room temperature under the dark condition. The cells were automatically added the stimulating solution (HBSS supplemented with MES, final assay buffer pH5.8) by the FDSS 6000.
Determination of Antagonist Activity
The monitoring of the changes in the fluorescence signals (λex=340 nm/380 nm, λem=510-520 nm) was initiated at 1 minute prior to the addition of capsaicin solution or acidic buffer and continued for 5 minute.

[1] = Half-life in Human Liver Microsomes (HLM); settings: pH 7.4; for half-life at 1 μM: human, human liver microsomes (HL101)

T1 sequence (Q8NER1 whole entry): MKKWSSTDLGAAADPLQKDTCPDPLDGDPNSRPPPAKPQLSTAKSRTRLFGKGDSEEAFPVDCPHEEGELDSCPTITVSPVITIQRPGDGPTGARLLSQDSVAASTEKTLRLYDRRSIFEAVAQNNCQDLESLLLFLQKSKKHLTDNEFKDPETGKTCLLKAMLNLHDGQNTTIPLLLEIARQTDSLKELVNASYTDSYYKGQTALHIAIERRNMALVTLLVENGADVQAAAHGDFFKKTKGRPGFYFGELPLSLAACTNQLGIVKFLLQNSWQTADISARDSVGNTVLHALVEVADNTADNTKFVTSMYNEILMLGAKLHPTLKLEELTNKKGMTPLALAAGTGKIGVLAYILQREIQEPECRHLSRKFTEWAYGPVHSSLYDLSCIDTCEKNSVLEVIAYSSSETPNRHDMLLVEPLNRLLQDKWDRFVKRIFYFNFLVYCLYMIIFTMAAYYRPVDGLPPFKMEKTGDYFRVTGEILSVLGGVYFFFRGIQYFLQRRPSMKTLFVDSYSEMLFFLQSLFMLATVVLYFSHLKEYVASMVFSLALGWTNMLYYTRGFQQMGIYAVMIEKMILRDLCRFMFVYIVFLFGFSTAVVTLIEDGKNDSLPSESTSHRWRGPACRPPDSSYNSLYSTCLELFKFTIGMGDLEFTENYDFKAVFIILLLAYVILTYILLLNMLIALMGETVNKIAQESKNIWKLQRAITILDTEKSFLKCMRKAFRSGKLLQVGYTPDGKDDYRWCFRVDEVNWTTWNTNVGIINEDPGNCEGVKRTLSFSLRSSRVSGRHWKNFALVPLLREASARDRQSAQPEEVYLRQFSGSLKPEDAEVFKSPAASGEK

| SMILES | IC50 (human VR1 receptors) | half-life at 1 μM [1] | T1/2 ([1]; 1 μM compound, 0.78 mg/mL HLM, 37° C., NADPH) |
| --- | --- | --- | --- |
| CCc1cc([C@@H](C)NC(=O)C2CC2(C)c2ccc(OC(F)(F)F)cc2)ccc1NS(C)(=O)=O (mixture of isomers) [Example 29, N-((1R)-1-{3-Ethyl-4-[(methylsulfonyl)amino]phenyl}ethyl)-2-methyl-2-{4-[(trifluoromethyl)oxy]phenyl}cyclopropanecarboxamide] | 17.9 nM | 19 min |  |
| Cc1cc([C@@H](C)NC(=O)C2CC2(C)c2ccc(OC(F)(F)F)cc2)ccc1NS(C)(=O)=O (single isomer, unassigned) [Example 28] | 12.3 nM | 61 min |  |
| Cc1cc([C@@H](C)NC(=O)C2CC2c2cc(F)c(C(C)(C)C(F)(F)F)c(F)c2)ccc1NS(C)(=O)=O (single isomer, unassigned) [Example 30] | 138 nM | 32 min |  |
| Cc1nc([C@@H](C)NC(=O)C2CC2c2ccc(C(C)(C)C)cc2)ccc1NS(C)(=O)=O (single isomer, unassigned) [Example 55] | 297 nM | 42 min |  |
| Cc1nc([C@@H](C)NC(=O)C2CC2c2ccc(C(F)(F)F)cc2)ccc1NS(C)(=O)=O (single isomer, unassigned) [Example 56] | 1250 nM | > 120 min |  |
| Cc1cc([C@@H](C)NC(=O)C2CC2(C)c2ccc(C(F)(F)F)nc2)ccc1NS(C)(=O)=O (single isomer, unassigned) [Example 57] | 30.5 nM | 91 min |  |
| Cc1cc([C@@H](C)NC(=O)C2CC2(C)c2cc(F)c(C(C)(C)C(F)(F)F)c(F)c2)ccc1NS(C)(=O)=O (single isomer, unassigned) [Example 71] | 0.48 nM | 15.8 min |  |
| CCc1cc([C@@H](C)NC(=O)C2CC2(C)c2cc(F)c(C(C)(C)C(F)(F)F)c(F)c2)ccc1NS(C)(=O)=O (single isomer, unassigned) [Example 72] | 8.5 nM | 52.6 min |  |
| CCc1cc([C@@H](C)NC(=O)C2CC2(C)c2ccc(OC(F)(F)F)cc2)ccc1NS(C)(=O)=O (single isomer, unassigned) [Example 75] | 11.8 nM | 10 min |  |
| Oc1cc2c(cc1O)CN(C(=S)NCCc1ccc(Cl)cc1)CCC2 [Capsazepine, reference compound] | 237 to 455 nM |  |  |
| Cc1cc([C@@H](C)NC(=O)C2CC2(C)c2ccc(C(C)(C)O)cc2)ccc1NS(C)(=O)=O (stereo partly drawn) [Example 3, 2-[4-(1-Hydroxy-1-methylethyl)phenyl]-2-methyl-N-((1R)-1-{3-methyl-4-[(methylsulfonyl)amino]phenyl}ethyl)cyclopropanecarboxamide] | 885 nM |  |  |
| Cc1cc([C@@H](C)NC(=O)C2CC2(C)c2ccc(C(C)(C)C)nc2)ccc1NS(C)(=O)=O (stereo partly drawn) [Example 11, 2-(6-tert-Butylpyridin-3-yl)-2-methyl-N-((1R)-1-{3-methyl-4-[(methylsulfonyl)amino]phenyl}ethyl)cyclopropanecarboxamide monohydrochloride] |  |  | 22 min |
| CCc1nc([C@@H](C)NC(=O)C2C[C@]2(C)c2ccc(C(C)(C)C(F)(F)F)cc2)ccc1NS(C)(=O)=O (stereo partly drawn) [Example 35, N-((1R)-1-{6-Ethyl-5-[(methylsulfonyl)amino]pyridin-2-yl}ethyl)-2-methyl-2-[4-(2,2,2-trifluoro-1,1-dimethylethyl)phenyl]cyclopropanecarboxamide] |  | 25 min |  |
| CCc1nc([C@@H](C)NC(=O)[C@H]2C[C@]2(C)c2ccc(C(C)(C)C(F)(F)F)cc2)ccc1NS(C)(=O)=O [Example 35, N-((1R)-1-{6-Ethyl-5-[(methylsulfonyl)amino]pyridin-2-yl}ethyl)-2-methyl-2-[4-(2,2,2-trifluoro-1,1-dimethylethyl)phenyl]cyclopropanecarboxamide] | 156 nM |  |  |
| C[C@@H](NC(=O)C1C[C@@H]1c1ccc(C(C)(C)C)c(F)c1)c1ccc(NS(C)(=O)=O)c(CO)c1 (stereo partly drawn) [Example 36, 2-[4-tert-Butyl-3-fluorophenyl]-N-((1R)-1-{3-(hydroxymethyl)-4-[(methylsulfonyl)amino]phenyl}ethyl)cyclopropanecarboxamide] |  | 23 min |  |
| C[C@@H](NC(=O)[C@H]1C[C@@H]1c1ccc(C(C)(C)C)c(F)c1)c1ccc(NS(C)(=O)=O)c(CO)c1 [Example 36, 2-[4-tert-Butyl-3-fluorophenyl]-N-((1R)-1-{3-(hydroxymethyl)-4-[(methylsulfonyl)amino]phenyl}ethyl)cyclopropanecarboxamide] | 19 nM |  |  |
| C[C@@H](NC(=O)C1CC1c1ccc(C(C)(C)C)nc1)c1ccc(NS(C)(=O)=O)c(F)c1 (stereo partly drawn) [Example 52, 2-[6-tert-Butylpyridin-3-yl]-N-((1R)-1-{3-fluoro-4-[(methylsulfonyl)amino]phenyl}ethyl)cyclopropanecarboxamide] | 1150 nM |  |  |
| Cc1cc([C@@H](C)NC(=O)C2CC2c2ccc(C(C)(C)C)cc2-c2ccncc2)ccc1NS(C)(=O)=O (stereo partly drawn) [Example 65, 2-[4-tert-Butyl-2-pyridin-4-ylphenyl]-N-((1R)-1-{3-methyl-4-[(methylsulfonyl)amino]phenyl}ethyl)cyclopropanecarboxamide] | 1040 nM |  |  |
| Cc1cc([C@@H](C)NC(=O)C2CC2(C)c2cc(F)c(C(C)(C)C)c(F)c2)c(F)cc1NS(C)(=O)=O (stereo partly drawn) [Example 78, 2-(4-tert-Butyl-3,5-difluorophenyl)-N-((1R)-1-{2-fluoro-5-methyl-4-[(methylsulfonyl)amino]phenyl}ethyl)-2-methylcyclopropanecarboxamide] | < 3 nM |  |  |
| COCC(C)(C)c1ccc(C2(C)CC2C(=O)N[C@H](C)c2ccc(NS(C)(=O)=O)c(C)c2)cc1F (stereo partly drawn) [Example 85, 2-{4-[1,1-Dimethyl-2-(methyloxy)ethyl]-3-fluorophenyl}-2-methyl-N-((1R)-1-{3-methyl-4-[(methylsulfonyl)amino]phenyl}ethyl)cyclopropanecarboxamide] | 52.7 nM |  |  |
| C[C@@H](NC(=O)[C@H]1C[C@]1(C)c1ccc(C(F)(F)F)cc1)c1ccc(NS(C)(=O)=O)c(CCO)c1 [Example 86, (1S,2S)-N-((1R)-1-{3-(2-Hydroxyethyl)-4-[(methylsulfonyl)amino]phenyl}ethyl)-2-methyl-2-[4-(trifluoromethyl)phenyl]cyclopropanecarboxamide] | 4.8 nM |  |  |
| CCc1cc([C@@H](CC)NC(=O)[C@H]2C[C@]2(C)c2ccc(C(F)(F)F)cc2)ccc1NS(C)(=O)=O [Example 87, (1S,2S)-N-((1R)-1-{3-ethyl-4-[(methylsulfonyl)amino]phenyl}propyl)-2-methyl-2-[4-(trifluoromethyl)phenyl]cyclopropanecarboxamide] | 19.9 nM |  |  |
| CCC1(c2ccc(C(F)(F)F)cc2)CC1C(=O)N[C@H](C)c1ccc(NS(C)(=O)=O)c(C)c1 (stereo partly drawn) [Example 88, 2-Ethyl-N-((1R)-1-{3-methyl-4-[(methylsulfonyl)amino]phenyl}ethyl)-2-[4-(trifluoromethyl)phenyl]cyclopropanecarboxamide] | < 3 nM |  |  |
| CCC1(c2ccc(C(F)(F)F)cc2)CC1C(=O)N[C@H](C)c1ccc(NS(C)(=O)=O)c(F)c1 (stereo partly drawn) [Example 89, 2-Ethyl-N-((1R)-1-{3-fluoro-4-[(methylsulfonyl)amino]phenyl}ethyl)-2-[4-(trifluoromethyl)phenyl]cyclopropanecarboxamide] | < 3 nM |  |  |
| CC[C@@H](NC(=O)[C@H]1C[C@]1(C)c1cc(F)c(C(C)(C)C)c(F)c1)c1ccc(NS(C)(=O)=O)cc1 [Example 90, 2-(4-tert-Butyl-3,5-difluorophenyl)-2-methyl-N-((1R)-1-{4-[(methylsulfonyl)amino]phenyl}propyl)cyclopropanecarboxamide] | 86.3 nM |  |  |
| CC[C@@H](NC(=O)[C@H]1C[C@]1(C)c1cc(F)c(C(C)(C)C)c(F)c1)c1ccc(NS(C)(=O)=O)c(C)c1 [Example 91, 2-(4-tert-butyl-3,5-difluorophenyl)-2-methyl-N-((1R)-1-{3-methyl-4-[(methylsulfonyl)amino]phenyl}propyl)cyclopropanecarboxamide] | < 3 nM |  |  |
